The source of these data is US20100291041A1, “BACTERIOPHAGE PREPARATION AND USE” (INNOVATIONS-TRANSFER UPHOFF GMBH & CO. KG, priority 2008, published 2010).

One assay concerns P. aeruginosa biofilms. The following applies: combination with ultrasound below 70 kHz; Qian et al. 1997; cited from earlier work.
For assay [1] the following is noted: own microbiological tests.
For a further assay, the system named is Pseudomonas aeruginosa. The following applies: Pseudomonas aeruginosa versus Staphylococcus aureus; from EP 0 700 249 B1; cited from earlier work.
For assay [2] the following is noted: use in wounds, albumin present; from EP 0 700 249 B1; cited from earlier work.

For gentamicin, the “increase in effect versus antibiotic alone” value in the assay on P. aeruginosa biofilms was over 250%.

For the substance “polyhexamethylene biguanide [polyhexanide]”, in assay [1], the “loss of action by the factor (effect of albumin)” value is “about 10”. The “activity lower by a factor, in comparison with Staphylococcus aureus” value in the assay on Pseudomonas aeruginosa was about 10. Moreover, the “loss of action caused by albumin (in wounds)” value in assay [2] was “considerable loss of action”.
